The data set relates to mice. Briefly: Approximate acute toxicity after oral administration. Type of data set: in vivo. Conditions: single dose, observation period 14 days; for animals died: 250 mg/kg. The procedure: The approximate acute toxicity of the test compounds was determined on groups of 5 mice after oral administration of a single dose (observation period: 14 days).

As for `CN(C)c1nc2nc(N3CCNCC3)nc(N(C)C)c2nc1Cl` [B, 6-chloro-4,7-bis(dimethylamino)-2-piperazino-pteridine], the animals died was 0 out of 5 and the Approximate acute toxicity is recorded as more than 250 mg/kg.
For the compound `CN(C)c1nc2nc(N3CCNCC3)nc(N(C)C)c2nc1SCc1ccccc1` [C, 6-benzylthio-4,7-bis-(dimethylamino)-2-piperazino-pteridine], the animals died is 0 out of 5 and the Approximate acute toxicity was more than 250 mg/kg.
On to `c1ccc(CSc2nc3c(N4CCOCC4)nc(N4CCNCC4)nc3nc2N2CCOCC2)cc1` [Compound A, 6-benzylthio-4,7-dimorpholino-2-piperazino-pteridine], for which the animals died is recorded as 0 out of 5 and the Approximate acute toxicity was more than 250 mg/kg.
For the compound `CSc1nc2c(N3CC[S+]([O-])CC3)nc(N3CCNCC3)nc2nc1NCc1ccccc1` [D, 7-benzylamino-6-methylthio-4-(1-oxido-thiomorpholino)-2-piperazino-pteridine], the animals died was 0 out of 5 and the Approximate acute toxicity is given as more than 250 mg/kg.
For `CN(C)c1nc(N2CCNCC2)nc2nc(NCc3ccccc3)c(Cl)nc12` [E, 6-chloro-2-piperazino-4-dimethylamino-7-benzylamino-pteridine], in that order: 0 out of 5 and more than 250 mg/kg.

The values above are taken from patent US4560685A, “2-Piperazino-pteridines useful as antithrombotics and antimetastatics” (Dr. Karl Thomae Gesellschaft mit beschrankter Haftung, priority 1984, dated 1985).
